Consider 47 compounds from patent US20170333591A9, “ABSORBENT ARTICLE COMPRISING MALODOR REDUCTION COMPOSITIONS” (The Procter & Gamble Company, priority 2014, published 2017).

The data set in a line: Log of liquid dish neat product liquid-air partition coefficient. To be noted: for Log of liquid dish neat product liquid-air partition coefficient (Comment Code K/L): code letter within the Comment Code cell. Type of data set: physicochemical.

With `CC(C)=CCCC(C)=CCC1CCCC1=O` (racemic) [Material 307], the “Log of liquid dish neat product liquid-air partition coefficient (Comment Code K/L)” value (“Log … (Comment Code K/L)” below) is “K (Log of liquid dish neat product liquid-air partition coefficient greater than or equal to 7)”.
On the same count and under the same terms, in the case of `C=CC(C)CCC=C(C)CCC=O` (racemic) [Material 358] it was “K (Log of liquid dish neat product liquid-air partition coefficient greater than or equal to 7)”; in that of `CCCCCCC#CC(OC)OC` [Material 3], “K (Log of liquid dish neat product liquid-air partition coefficient greater than or equal to 7)”; in that of `Cc1ccc(C(C)(C)O)cc1` [Material 4], “K (Log of liquid dish neat product liquid-air partition coefficient greater than or equal to 7)”.
For the compound `C=C1C2CCC(C)(C)C1CCC(OC)C2` (stereo not drawn) [Material 7], the “Comment Code: Log of liquid dish neat product liquid-air partition coefficient” value (from here on “Comment Code: Log”) was “K (Log of liquid dish neat product liquid-air partition coefficient greater than or equal to 7)” and the “Log … (Comment Code K/L)” value was “K (Log of liquid dish neat product liquid-air partition coefficient greater than or equal to 7)”.
Regarding `COC1CCCCCCCCCCC1` [Material 9], the “Log … (Comment Code K/L)” value was “K (Log of liquid dish neat product liquid-air partition coefficient greater than or equal to 7)”.
On the same count and under the same terms, in the case of `COC1(OC)CCCCCCCCCCC1` [Material 10] it was “K (Log of liquid dish neat product liquid-air partition coefficient greater than or equal to 7)”; in that of `CCCCCCCCCC/C=C\C#N` [Material 11], “K (Log of liquid dish neat product liquid-air partition coefficient greater than or equal to 7)”.
`CCOC1CCC(C(C)(C)CC)CC1` (stereo not drawn) [Material 12]: the “Comment Code: Log” value is given as “K (Log of liquid dish neat product liquid-air partition coefficient greater than or equal to 7)”.
As for `CC1(O)CCOC2(CCCCC2)C1` (stereo not drawn) [Material 16], the “Log … (Comment Code K/L)” value was “K (Log of liquid dish neat product liquid-air partition coefficient greater than or equal to 7)”.
Turning to `Cc1ccc2c(c1)OCC(=O)CO2` [Material 17], the “Log … (Comment Code K/L)” value is listed as “K (Log of liquid dish neat product liquid-air partition coefficient greater than or equal to 7)”.
With `COc1ccccc1-c1ccccc1` [Material 22], the “Log … (Comment Code K/L)” value is on record as “K (Log of liquid dish neat product liquid-air partition coefficient greater than or equal to 7)”.
For the compound `CC1C(C)(C)C2=C(C3OC(C)(C)OC3CC2)C1(C)C` (stereo not drawn) [Material 23], the “Comment Code: Log” value is listed as “K (Log of liquid dish neat product liquid-air partition coefficient greater than or equal to 7)” and the “Log … (Comment Code K/L)” value was “K (Log of liquid dish neat product liquid-air partition coefficient greater than or equal to 7)”.
Regarding `CC(C)C1OC2(CCCC2)OCC1(C)C` (stereo not drawn) [Material 25], the “Log … (Comment Code K/L)” value was “K (Log of liquid dish neat product liquid-air partition coefficient greater than or equal to 7)”.
`COc1ccccc1C=CC=O` [Material 26]: the “Comment Code: Log” value is “K (Log of liquid dish neat product liquid-air partition coefficient greater than or equal to 7)”.
Regarding `CCCCCCCCOC(=O)c1ccco1` [Material 28], the “Log … (Comment Code K/L)” value is reported as “K (Log of liquid dish neat product liquid-air partition coefficient greater than or equal to 7)”.
Same read-out and setting: in the case of `C=CC(=C)CCCC(C)(C)O` [Material 34] it was “K (Log of liquid dish neat product liquid-air partition coefficient greater than or equal to 7)”.
For the compound `C=CC(=C)CCCC(C)(C)OC(C)=O` [Material 35], the “Log … (Comment Code K/L)” value is “K (Log of liquid dish neat product liquid-air partition coefficient greater than or equal to 7)”.
Take `CCCCCCCCCCCCCC=O` [Material 36]: the “Log … (Comment Code K/L)” value is reported as “K (Log of liquid dish neat product liquid-air partition coefficient greater than or equal to 7)”.
On the same count and under the same terms, the entry for `C=CCc1cc(OC)c2c(c1)OCO2` [Material 37] is “K (Log of liquid dish neat product liquid-air partition coefficient greater than or equal to 7)”; for `CCCCCCCCCCCCCC#N` [Material 38] it is “K (Log of liquid dish neat product liquid-air partition coefficient greater than or equal to 7)”.
As to `CC1=CC(C)C2C(CCC(C)(C)C2O)C1` (stereo not drawn) [Material 39], the “Comment Code: Log” value is given as “K (Log of liquid dish neat product liquid-air partition coefficient greater than or equal to 7)” and the “Log … (Comment Code K/L)” value is “K (Log of liquid dish neat product liquid-air partition coefficient greater than or equal to 7)”.
Take `C=CC(C)=CCCC(C)(C)O` [Material 42]: the “Log … (Comment Code K/L)” value is “K (Log of liquid dish neat product liquid-air partition coefficient greater than or equal to 7)”.
`C=CC(C)=CCCC(C)(C)O` [Material 43]: the “Log … (Comment Code K/L)” value was “K (Log of liquid dish neat product liquid-air partition coefficient greater than or equal to 7)”.
`CC(=O)OCCC1=CCC2CC1C2(C)C` (stereo not drawn) [Material 47]: the “Log … (Comment Code K/L)” value is “K (Log of liquid dish neat product liquid-air partition coefficient greater than or equal to 7)”.
`C=C(C)[C@@H]1CCC2=CC(=O)C[C@@H](C)[C@]2(C)C1` [Material 48]: the “Comment Code: Log” value was “K (Log of liquid dish neat product liquid-air partition coefficient greater than or equal to 7)” and the “Log … (Comment Code K/L)” value was “K (Log of liquid dish neat product liquid-air partition coefficient greater than or equal to 7)”.
As for `CC1CC=CCCCCCCCC(=O)OCC1` (stereo not drawn) [Material 52], the “Log … (Comment Code K/L)” value is listed as “K (Log of liquid dish neat product liquid-air partition coefficient greater than or equal to 7)”.
For `CCNC(=O)C1CC(C)CCC1C(C)C` (stereo not drawn) [Material 57], the “Log … (Comment Code K/L)” value was “K (Log of liquid dish neat product liquid-air partition coefficient greater than or equal to 7)”.
As for `CC(C)=CCC/C(C)=C\COC=O` [Material 59], the “Comment Code: Log” value is “K (Log of liquid dish neat product liquid-air partition coefficient greater than or equal to 7)”.
Take `CC(=O)c1oc2ccccc2c1C` [Material 61]: the “Log … (Comment Code K/L)” value is reported as “K (Log of liquid dish neat product liquid-air partition coefficient greater than or equal to 7)”.
For `C=CC(C)(O)CCC=C(C)CCC=C(C)C` (stereo not drawn) [Material 63], the “Log … (Comment Code K/L)” value is recorded as “K (Log of liquid dish neat product liquid-air partition coefficient greater than or equal to 7)”.
For `CC(C)=CCC/C(C)=C\CO` [Material 64], the “Log … (Comment Code K/L)” value is listed as “K (Log of liquid dish neat product liquid-air partition coefficient greater than or equal to 7)”.
On the same count and under the same terms, the entry for `CC1=CC2(C=CC(C)O2)C(C(C)C)CC1` (stereo not drawn) [Material 68] is “K (Log of liquid dish neat product liquid-air partition coefficient greater than or equal to 7)”.
`CC1=CCC(C(C)CC2CCCC2=O)CC1` (stereo not drawn) [Material 69]: the “Log … (Comment Code K/L)” value was “K (Log of liquid dish neat product liquid-air partition coefficient greater than or equal to 7)”.
For the compound `CC(=O)/C=C/C1C(C)CCC(C)C1(C)C` (stereo not drawn) [Material 71], the “Log … (Comment Code K/L)” value is “K (Log of liquid dish neat product liquid-air partition coefficient greater than or equal to 7)”.
In the case of `CC(=O)OCC1CC=C(CCC=C(C)C)CC1` (stereo not drawn) [Material 74], the “Log … (Comment Code K/L)” value was “K (Log of liquid dish neat product liquid-air partition coefficient greater than or equal to 7)”.
Consider `CC1CCCCCCCCCCCCC(=O)C1` (stereo not drawn) [Material 79], for which the “Log … (Comment Code K/L)” value is on record as “K (Log of liquid dish neat product liquid-air partition coefficient greater than or equal to 7)”.
`CC1/C=C/CCCCCCCCCCC(=O)C1` (stereo not drawn) [Material 80]: the “Log … (Comment Code K/L)” value was “K (Log of liquid dish neat product liquid-air partition coefficient greater than or equal to 7)”.
In the case of `CCC(C)(O)/C=C/C=C(C)C` (stereo not drawn) [Material 81], the “Comment Code: Log” value is given as “K (Log of liquid dish neat product liquid-air partition coefficient greater than or equal to 7)”.
For the compound `CC(O)C(C)Cc1ccccc1` (stereo not drawn) [Material 82], the “Log … (Comment Code K/L)” value is reported as “K (Log of liquid dish neat product liquid-air partition coefficient greater than or equal to 7)”.
`CC(C)C1CCC(C(C)O)CC1` (stereo not drawn) [Material 83]: the “Log … (Comment Code K/L)” value is recorded as “K (Log of liquid dish neat product liquid-air partition coefficient greater than or equal to 7)”.
For the compound `CCC(=O)OC(C)c1ccccc1` (stereo not drawn) [Material 96], the “Comment Code: Log” value is listed as “K (Log of liquid dish neat product liquid-air partition coefficient greater than or equal to 7)”.
On to `CC(O)CCc1ccccc1` (stereo not drawn) [Material 98], for which the “Log … (Comment Code K/L)” value is “K (Log of liquid dish neat product liquid-air partition coefficient greater than or equal to 7)”.
Regarding `CCCCCCCCCC(C)C(OC)OC` (stereo not drawn) [Material 101], the “Log … (Comment Code K/L)” value is recorded as “K (Log of liquid dish neat product liquid-air partition coefficient greater than or equal to 7)”.
Regarding `CCCCCCCCCC(C)C=O` (stereo not drawn) [Material 103], the “Log … (Comment Code K/L)” value is reported as “K (Log of liquid dish neat product liquid-air partition coefficient greater than or equal to 7)”.
With `CCCCCCCCCCCCCC(=O)OC` [Material 104], the “Log … (Comment Code K/L)” value is given as “K (Log of liquid dish neat product liquid-air partition coefficient greater than or equal to 7)”.
Still for that read-out and setting: in the case of `CCCCCCC(CO)C(C)=O` (stereo not drawn) [Material 106] it was “K (Log of liquid dish neat product liquid-air partition coefficient greater than or equal to 7)”.
